In article PMC11480233, “Structural insights into the Caprin-2 HR1 domain in canonical Wnt signaling” (The Journal of Biological Chemistry, 2024):

Assays:
[1] = biological target: T1, hCap2_HR1 (HR1 domain of human Caprin-2) (Homo sapiens, UniProt Q6IMN6, R200E/R201E); assay: biolayer interferometry (Octet Red96); assay type: binding; conditions: labelled compound; biotinylated PI4P immobilised on streptavidin sensors; 20 mM Tris pH 7.5, 150 mM NaCl, 0.2 mM DTT, 0.05% Tween-20, 0.2 mg/ml BSA
T1 construct: gene CAPRIN2; HR1 domain, aa S102-K351, E. coli BL21-CodonPlus-RIL, modified pET-28a with His tag and TEV site; His tag kept for lipid strip
T1 sequence (Q6IMN6 102-351 R200E/R201E): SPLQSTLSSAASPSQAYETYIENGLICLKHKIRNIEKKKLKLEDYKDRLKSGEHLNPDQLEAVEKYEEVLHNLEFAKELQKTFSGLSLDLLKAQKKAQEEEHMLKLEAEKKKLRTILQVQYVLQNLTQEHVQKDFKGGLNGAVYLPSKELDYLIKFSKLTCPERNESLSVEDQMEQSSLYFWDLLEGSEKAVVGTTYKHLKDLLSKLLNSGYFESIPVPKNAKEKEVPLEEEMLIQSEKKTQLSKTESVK

[2] = biological target: T2, hCap2_HR1 (HR1 domain of human Caprin-2) (Homo sapiens, UniProt Q6IMN6); assay: biolayer interferometry (Octet Red96); assay type: binding; conditions: labelled compound; biotinylated PI4P immobilised on streptavidin sensors; 20 mM Tris pH 7.5, 150 mM NaCl, 0.2 mM DTT, 0.05% Tween-20, 0.2 mg/ml BSA
T2 construct: gene CAPRIN2; HR1 domain, aa S102-K351, E. coli BL21-CodonPlus-RIL, modified pET-28a with His tag and TEV site; His tag kept for lipid strip
T2 sequence (Q6IMN6 102-351): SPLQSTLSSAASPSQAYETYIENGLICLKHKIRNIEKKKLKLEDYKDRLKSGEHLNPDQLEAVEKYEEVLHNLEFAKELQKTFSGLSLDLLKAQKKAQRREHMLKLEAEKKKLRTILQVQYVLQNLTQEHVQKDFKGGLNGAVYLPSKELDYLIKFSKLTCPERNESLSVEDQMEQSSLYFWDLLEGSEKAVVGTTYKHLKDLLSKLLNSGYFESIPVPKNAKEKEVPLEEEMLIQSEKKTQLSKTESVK

[3] = biological target: the molecule itself; assay: SEC; Superdex 200 with a calibration curve; estimated MW 66.45 kDa against theoretical 29.2 kDa

Molecule: biotinylated PI4P
- Kd [1]: 152 µM
- Kd [2]: 2000 nM

B1: HR1 domain of human Caprin-2 (aa S102-K351) (domain or fragment, UniProt Q6IMN6 102-351, looked up)
chain: SPLQSTLSSAASPSQAYETYIENGLICLKHKIRNIEKKKLKLEDYKDRLKSGEHLNPDQLEAVEKYEEVLHNLEFAKELQKTFSGLSLDLLKAQKKAQRREHMLKLEAEKKKLRTILQVQYVLQNLTQEHVQKDFKGGLNGAVYLPSKELDYLIKFSKLTCPERNESLSVEDQMEQSSLYFWDLLEGSEKAVVGTTYKHLKDLLSKLLNSGYFESIPVPKNAKEKEVPLEEEMLIQSEKKTQLSKTESVK
notes: Caprin-2, human, HR1 domain construct, residues S102-K351, cloned from full-length human Caprin-2; Modified pET-28a vector with a TEV site in place of the thrombin site; A SeMet triple mutant I217M/L251M/L301M of the same limits was used for phasing; also called hCap2_HR1; Cap2_HR1
- stoichiometry N [3]: 2
